According to US20180153995A1, “USE OF ANTIMICROBIAL POLYMERS FOR RE-SENSITIZATION OF MICROORGANISMS UPON EMERGENCE OF RESISTANCE TO ANTI-MICROBIAL AGENTS” (Technion Research & Development Foundation Limited, priority 2008, published 2018):
Several values for one entry are separate records, joined by “and”; a condition that tells them apart may be missing. Equal values may be shown once. Read-outs that look alike come from different tables or passages of the source.

Assays:
[1] = test system: E. coli 14384; test: Antibiotic MIC by microdilution with or without sub-MIC polymer; assay type: cell-based, Escherichia coli
Procedure, shortened: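 OD 620 nm after 24 h at 37° C gave the inhibition of proliferation. Bacteria at 10^5 per ml were exposed to 2-fold serial antibiotic dilutions, with or without […].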

[2] = test system: E. coli K-12 resistant wild type; assay type: cell-based, Escherichia coli; settings: E. coli AG100 (w.t.)
[3] = test system: E. coli 14182; test: Antibiotic MIC by microdilution with or without sub-MIC polymer; assay type: cell-based, Escherichia coli
[4] = test system: E. coli 16327; test: microbe, parasite or virus in culture
[5] = test system: S. aureus 17314; test: Antibiotic MIC by microdilution with or without sub-MIC polymer; assay type: cell-based, Staphylococcus aureus
[6] = test system: S. aureus 43300; test: as above; assay type: cell-based, Staphylococcus aureus
[7] = test system: S. aureus 15877; test: as above; assay type: cell-based, Staphylococcus aureus
Procedure: MICs were determined by microdilution susceptibility testing in 96-well plates (by Nunc) using inocula of 10^5 bacteria per ml. Cell populations were evaluated by optical density measurements at 620 nm and were calibrated against a set of standards. Hundred (100) μl of a bacterial suspension were added to 100 μl of culture medium (control) or to 100 μl of culture medium containing various polymer concentrations in 2-fold serial dilutions. Inhibition of proliferation was determined by optical density measurements at 620 nm after an incubation period of 24 hours at 37° C.
MICs were determined by microdilution susceptibility testing in 96-well plates (Nunc) using inocula of 10^5 bacteria per ml. One hundred (100) μl of a bacterial suspension were added to 100 μl of culture medium (control) or to 100 μl of culture medium containing various antibiotic and C12(5-ene)KKNC12KNH2 (SEQ ID NO: 2) concentrations in 2-fold serial dilutions. Inhibition of proliferation was determined by optical density measurements at 620 nm after an incubation period of 24 hours at 37° C.

[8] = test system: MRSA 15903; test: microbe, parasite or virus in culture; assay type: cell-based, Staphylococcus aureus
Procedure, shortened: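 Values are FIC indexes, summing each agent's MIC in combination divided by its MIC alone, for MRSA 15903. Interpretation: <0.5 clear re-sensitization, 0.5 to 4 marginal or none, >4 antagonistic.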

[9] = test system: S. maltophila 748; test: Antibiotic MIC by microdilution with or without sub-MIC polymer; assay type: cell-based, Stenotrophomonas maltophila
[10] = test system: S. aureus 43300; test: as above; assay type: cell-based, Staphylococcus aureus; remark: listed apart in the source
[11] = test system: E. coli 16329; assay type: cell-based, Escherichia coli
Procedure, shortened: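 Bacterial suspensions (100 μl) were added to 100 μl of culture medium carrying 2-fold serially diluted antibiotic together with a fraction of the polymer's MIC, or to plain medium as control. Plates were incubated 24 hours at 37° C, and proliferation was read at 620 nm against calibration standards. Starting inoculum was 10^5 bacteria per ml.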

[12] = +½ MIC (3.12 μM) C12(5-ene)KKNC12KNH2
[13] = +¼ MIC (1.6 μM) C12(5-ene)KKNC12KNH2
[14] = +⅓ MIC (2.1 μM) C12(5-ene)KKNC12KNH2

CCN1CCN(C(=O)N[C@@H](C(=O)N[C@@H]2C(=O)N3[C@@H]2SC(C)(C)[C@@H]3C(=O)O)c2ccccc2)C(=O)C1=O [Piperacillin, piperacillin]
Antibiotic MIC [1]: 256 µg/mL and 256 to 512 µg/mL
Antibiotic MIC ([1]; E. coli 14384, +½ MIC C12K(NC8K)5NH2): 256 to 512 µg/mL
Antibiotic MIC, None ([1]; E. coli 14384, antibiotic alone (Table 15)): 256 to 512 µg/mL
Antibiotic MIC ([1]; E. coli 14384, no polymer (None), Table 9): 256 to 512 µg/mL
Antibiotic MIC ([1]; E. coli 14384, no polymer (None), Table 14): 256 to 512 µg/mL
Antibiotic MIC in presence of C12K(NC8K)7NH2 (SEQ ID NO: 4), +¼ MIC ([1]; E. coli 14384, polymer at ¼ of its MIC): 256 to 512 µg/mL
Antibiotic MIC in presence of C12K(NC8K)7NH2 (SEQ ID NO: 4), +½ MIC ([1]; E. coli 14384, polymer at ½ of its MIC): 64 to 128 µg/mL
Antibiotic MIC in presence of C12K(NC8K)7NH2 (SEQ ID NO: 4), +⅓ MIC ([1]; E. coli 14384, polymer at ⅓ of its MIC): 256 to 512 µg/mL
Antibiotic MIC, None ([2]; antibiotic alone (Table 16)): 2 µg/mL
Antibiotic MIC, None ([2]; antibiotic alone (Table 17)): 2 µg/mL
Antibiotic MIC in presence of C12K(NC8K)7NH2 (SEQ ID NO: 4), +¼ MIC ([2]; polymer at ¼ of its MIC (Table 16)): 2 µg/mL
Antibiotic MIC in presence of C12K(NC8K)7NH2 (SEQ ID NO: 4), +½ MIC ([2]; polymer at ½ of its MIC (Table 16)): 0.5 µg/mL
Antibiotic MIC in presence of C12K(NC8K)7NH2 (SEQ ID NO: 4), +⅓ MIC ([2]; polymer at ⅓ of its MIC (Table 16)): 1 µg/mL
Antibiotic MIC in presence of the OAK, +¼ MIC ([2]; the OAK at ¼ of its MIC (Table 17)): 1 to 2 µg/mL
Antibiotic MIC in presence of the OAK, +½ MIC ([2]; the OAK at ½ of its MIC (Table 17)): 0.5 µg/mL
Antibiotic MIC in presence of the OAK, +⅓ MIC ([2]; the OAK at ⅓ of its MIC (Table 17)): 1 µg/mL
Antibiotic MIC ([3]; +¼ MIC C12K(NC8K)5NH2): >512 µg/mL
Antibiotic MIC ([3]; +½ MIC C12K(NC8K)5NH2): 512 µg/mL
Antibiotic MIC ([3]; +⅓ MIC C12K(NC8K)5NH2): >512 µg/mL
Antibiotic MIC, None ([3]; antibiotic alone (Table 15)): >512 µg/mL
Antibiotic MIC ([3]; no polymer (None), Table 14): >512 µg/mL
Antibiotic MIC in presence of C12K(NC8K)7NH2 (SEQ ID NO: 4), +¼ MIC ([3]; polymer at ¼ of its MIC): >512 µg/mL
Antibiotic MIC in presence of C12K(NC8K)7NH2 (SEQ ID NO: 4), +½ MIC ([3]; polymer at ½ of its MIC): 64 µg/mL
Antibiotic MIC in presence of C12K(NC8K)7NH2 (SEQ ID NO: 4), +⅓ MIC ([3]; polymer at ⅓ of its MIC): >512 µg/mL
Antibiotic MIC [4]: 128 µg/mL and 256 µg/mL
Antibiotic MIC ([4]; E. coli 16327, +¼ MIC (1.6 μM) C12K(KNC12K)2NH2): 256 µg/mL
Antibiotic MIC ([4]; E. coli 16327, +½ MIC (3.12 μM) C12K(KNC12K)2NH2): 64 µg/mL
Antibiotic MIC ([4]; E. coli 16327, +⅓ MIC (2.1 μM) C12K(KNC12K)2NH2): 256 µg/mL
Antibiotic MIC ([4]; E. coli 16327, no polymer (None), Table 9): 256 µg/mL
Antibiotic MIC ([4]; E. coli 16327, no polymer (None), Table 10): 512 µg/mL
Antibiotic MIC ([4]; E. coli 16327, no polymer (None), Table 12): 256 µg/mL
Antibiotic MIC, None ([4]; E. coli U-16327, antibiotic alone (Table 15)): 256 µg/mL
Antibiotic MIC in presence of C12K(NC8K)7NH2 (SEQ ID NO: 4), +¼ MIC ([4]; E. coli U-16327, polymer at ¼ of its MIC): 256 µg/mL
Antibiotic MIC in presence of C12K(NC8K)7NH2 (SEQ ID NO: 4), +½ MIC ([4]; E. coli U-16327, polymer at ½ of its MIC): 32 to 64 µg/mL
Antibiotic MIC in presence of C12K(NC8K)7NH2 (SEQ ID NO: 4), +⅓ MIC ([4]; E. coli U-16327, polymer at ⅓ of its MIC): 128 to 256 µg/mL
Antibiotic MIC [5]: 128 µg/mL
Antibiotic MIC ([5]; S. aureus 17314, +¼ MIC (1.6 μM) C12K(KNC12K)2NH2): 128 µg/mL
Antibiotic MIC ([5]; S. aureus 17314, +¼ MIC (1.6 μM) C14(9-ene)KKNC12KNH2): 32 µg/mL
Antibiotic MIC ([5]; S. aureus 17314, +¼ MIC (1.6 μM) C16(9-ene)KKNC12KNH2): 4 µg/mL
Antibiotic MIC ([5]; S. aureus 17314, +½ MIC (3.12 μM) C12K(KNC12K)2NH2): 64 µg/mL
Antibiotic MIC ([5]; S. aureus 17314, +½ MIC (3.12 μM) C12KKNC12KNH2): 64 µg/mL
Antibiotic MIC ([5]; S. aureus 17314, +½ MIC (3.12 μM) C14(9-ene)KKNC12KNH2): 32 µg/mL
Antibiotic MIC ([5]; S. aureus 17314, +½ MIC (3.12 μM) C16(9-ene)KKNC12KNH2): 1 µg/mL
Antibiotic MIC ([5]; S. aureus 17314, +⅓ MIC (2.1 μM) C12K(KNC12K)2NH2): 128 µg/mL
Antibiotic MIC ([5]; S. aureus 17314, +⅓ MIC (2.1 μM) C14(9-ene)KKNC12KNH2): 32 µg/mL
Antibiotic MIC ([5]; S. aureus 17314, +⅓ MIC (2.1 μM) C16(9-ene)KKNC12KNH2): 2 µg/mL
Antibiotic MIC ([5]; S. aureus 17314, no polymer (None), Table 9): 32 µg/mL
Antibiotic MIC ([5]; S. aureus 17314, no polymer (None), Table 10): 8 µg/mL
Antibiotic MIC ([5]; S. aureus 17314, no polymer (None), Table 11): 128 µg/mL
Antibiotic MIC ([5]; S. aureus 17314, no polymer (None), Table 12): 128 µg/mL
Antibiotic MIC ([6]; +¼ MIC (1.6 μM) C14(9-ene)KKNC12KNH2): 16 µg/mL
Antibiotic MIC [6, 12]: 1 µg/mL
Antibiotic MIC ([6]; +½ MIC (3.12 μM) C14(9-ene)KKNC12KNH2): 16 µg/mL
Antibiotic MIC ([6]; +⅓ MIC (2.1 μM) C14(9-ene)KKNC12KNH2): 16 µg/mL
Antibiotic MIC ([6]; no polymer (None), Table 8): 16 µg/mL
Antibiotic MIC ([6]; no polymer (None), Table 9): 16 µg/mL
Antibiotic MIC ([6]; no polymer (None), Table 10): 16 µg/mL
Antibiotic MIC ([6]; no polymer (None), Table 11): 32 µg/mL
Antibiotic MIC ([6]; no polymer (None), Table 12): 32 µg/mL
Antibiotic MIC [7, 13]: 16 to 32 µg/mL
Antibiotic MIC [7, 12]: 8 to 16 µg/mL
Antibiotic MIC [7, 14]: 16 to 32 µg/mL
Antibiotic MIC ([7]; no polymer (None), Table 8): 16 to 32 µg/mL
MIC ([8]; MRSA 15903, +¼ polymer MIC (1.6 μM) NC12(KNC12K)2NH2): 64 µg/mL
MIC ([8]; MRSA 15903, +½ polymer MIC (3.1 μM) NC12(KNC12K)2NH2): 1 µg/mL
MIC ([8]; MRSA 15903, +⅓ polymer MIC (2.1 μM) NC12(KNC12K)2NH2): 4 µg/mL
MIC ([8]; S. aureus CI-15903, +polymer (¼ MIC) C12(5-ene)KKNC12KNH2): 32 µg/mL
MIC ([8]; S. aureus CI-15903, +polymer (½ MIC) C12(5-ene)KKNC12KNH2): 0.25 µg/mL
MIC ([8]; S. aureus CI-15903, +polymer (⅓ MIC) C12(5-ene)KKNC12KNH2): 4 µg/mL
MIC ([8]; S. aureus CI-15903, alone): 256 µg/mL
MIC ([8]; Staphylococcus aureus, MRSA, 24 h): 256 µg/mL
Antibiotic MIC ([9]; +¼ MIC (1.6 μM) C12K(KNC12K)3NH2): 32 µg/mL
Antibiotic MIC ([9]; +½ MIC (3.12 μM) C12K(KNC12K)3NH2): 32 µg/mL
Antibiotic MIC ([9]; +⅓ MIC (2.1 μM) C12K(KNC12K)3NH2): 32 µg/mL
Antibiotic MIC ([9]; no polymer (None), Table 13): 32 µg/mL
Antibiotic MIC [10, 13]: 4 µg/mL
Antibiotic MIC ([10]; +¼ MIC (1.6 μM) C12K(KNC12K)2NH2): 32 µg/mL
Antibiotic MIC ([10]; +¼ MIC (1.6 μM) C12KKNC12KNH2): 32 µg/mL
Antibiotic MIC ([10]; +¼ MIC (1.6 μM) C16(9-ene)KKNC12KNH2): 4 µg/mL
Antibiotic MIC ([10]; +½ MIC (3.12 μM) C12KKNC12KNH2): 8 µg/mL
Antibiotic MIC ([10]; +½ MIC (3.12 μM) C16(9-ene)KKNC12KNH2): 2 µg/mL
Antibiotic MIC [10, 14]: 4 µg/mL
Antibiotic MIC ([10]; +⅓ MIC (2.1 μM) C12K(KNC12K)2NH2): 32 µg/mL
Antibiotic MIC ([10]; +⅓ MIC (2.1 μM) C12KKNC12KNH2): 16 µg/mL
Antibiotic MIC ([10]; +⅓ MIC (2.1 μM) C16(9-ene)KKNC12KNH2): 4 µg/mL
Antibiotic MIC [11]: 128 to 256 µg/mL
Antibiotic MIC ([11]; E. coli 16329, no polymer (None), Table 10): 256 µg/mL
Antibiotic MIC ([11]; E. coli U-16329, +¼ MIC C12K(NC8K)5NH2): 256 µg/mL
Antibiotic MIC ([11]; E. coli U-16329, +½ MIC C12K(NC8K)5NH2): 128 µg/mL
Antibiotic MIC ([11]; E. coli U-16329, +⅓ MIC C12K(NC8K)5NH2): 128 to 256 µg/mL
Antibiotic MIC, None ([11]; E. coli U-16329, antibiotic alone (Table 15)): 256 µg/mL
Antibiotic MIC ([11]; E. coli U-16329, no polymer (None), Table 14): 256 µg/mL
Antibiotic MIC in presence of C12K(NC8K)7NH2 (SEQ ID NO: 4), +¼ MIC ([11]; E. coli U-16329, polymer at ¼ of its MIC): 128 to 256 µg/mL
Antibiotic MIC in presence of C12K(NC8K)7NH2 (SEQ ID NO: 4), +½ MIC ([11]; E. coli U-16329, polymer at ½ of its MIC): 64 to 128 µg/mL
Antibiotic MIC in presence of C12K(NC8K)7NH2 (SEQ ID NO: 4), +⅓ MIC ([11]; E. coli U-16329, polymer at ⅓ of its MIC): 128 to 256 µg/mL
